Laboratory results from US11226337B2, “Chemoproteomic profiling of protein electrophilic and oxidative post-translational modifications” (Zenagem, LLC, priority 2017, dated 2022).

Experiments:
Assay type in all cases: cell-based
[1] = target: T1, SCRN3 Secernin-3 (Q0VDG4) (Homo sapiens, UniProt Q0VDG4); assay: SILAC RP-ABPP; conditions: SILAC H/L, HEK293T
T1 construct: shared by both the endogenous and recombinant forms of these proteins; endogenous in cells; host or cells: HEK293T and MDA-MB-231
T1 sequence (Q0VDG4 6-424): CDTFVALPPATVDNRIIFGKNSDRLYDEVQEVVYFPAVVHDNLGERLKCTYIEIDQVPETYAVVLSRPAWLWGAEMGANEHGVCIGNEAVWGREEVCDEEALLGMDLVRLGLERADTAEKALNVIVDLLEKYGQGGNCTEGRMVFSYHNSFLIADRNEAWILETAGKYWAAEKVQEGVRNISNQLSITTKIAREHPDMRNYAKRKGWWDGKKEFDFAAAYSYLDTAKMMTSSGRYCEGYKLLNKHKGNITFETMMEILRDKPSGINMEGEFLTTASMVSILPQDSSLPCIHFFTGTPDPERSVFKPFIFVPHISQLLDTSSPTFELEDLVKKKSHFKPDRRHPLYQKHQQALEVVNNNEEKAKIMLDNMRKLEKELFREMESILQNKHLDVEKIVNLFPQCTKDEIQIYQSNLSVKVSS
Protocol: (§1) Modifications to this protocol included using isotopically ‘light’ and ‘heavy’ SILAC cells that were also grown to near complete confluence prior to treatment. Isotopically light cells were treated with the non-clickable hydrazine probe (at the same concentration as the probe in ‘enrichment’ experiments) or the probe in the presence of 10-fold excess non-clickable hydrazine probe as a competitor (in ‘competition’ experiments). Isotopically heavy cells were treated with the probe for both types of experiments. These treatments were performed in non-SILAC media. Following treatments, cells were washed with cold PBS to remove the probe-containing media, harvested by scraping, collected by centrifugation (1,400 g, 3 min, 4° C.), washed again by resuspension in cold PBS and frozen as pellets at −80° C. until use.
(§2) The fractionated equimolar mixture of heavy and light soluble proteomes (1-1.5 mg) was diluted to 1 mL in PBS. Click reactions were scaled accordingly (except for biotin-azide) to maintain final concentrations of 0.1 mM TBTA, 1 mM CuSO4, 100 μM biotin-azide (10 mM in DMSO) and 1 mM TCEP. The mixture was vortexed and placed on a rotator at ambient temperature for 1 hour. Sequential addition of and mixture with pre-chilled methanol (MeOH, 2 mL), chloroform (CHCl3, 0.5 mL) and PBS (1 mL) on ice quenched the reaction. The precipitated proteome was centrifuged (5,000 g, 10 min, 4° C.) to fractionate the protein interphase from the organic and aqueous solvent layers. The protein pellet was washed with cold 1:1 MeOH:CHCl3 (3×1 mL), mildly sonicated in cold 4:1 MeOH:CHCl3 (2.5 mL) and pelleted once more by centrifugation (5,000 g, 10 min, 4° C.) to ensure click reagents were efficiently removed.
(§3) Heavy and light parent ion chromatograms associated with successfully identified peptides were extracted and compared using CIMAGE software as previously described^69. At least one ion of a co-eluting heavy-light pair must be accurately identified from a fragmentation event that occurred within the retention time window (±10 min) of parent ion elution. To ensure that the correct pair of peaks is quantified, chromatograms are extracted within a 10 ppm error tolerance of the predicted m/z, the signal-to-noise ratio must be >2.5 and the ‘co-elution correlation score’ and ‘envelope correlation score’ must have R^2 values ≥0.8. In addition, peptides detected as ‘singletons,’ where only the heavy ion of a peptide pair was identified, but for which passed all other filtering parameters, are given a default assigned ratio of ‘20,’ which is defined as any measured ratio that is ≥20.
(§4) To further eliminate false positives and any stochastic variability in the data, protein ratios were then determined by the median peptide ratio derived from three or more unique quantified peptides. Protein ratios that complied with these criteria from a single experiment were then averaged with ratios acquired from ≥3 replicates to provide final values for each type of experiment in both cell lines with both probes. […] Probe targets in HEK293T and MDA-MB-231 cells represent data combined from ≥3 independent biological replicates with each cell type performed with several independent batches of synthesized probes over a period of almost two years.
(§5) Two types of experiments were performed—1) direct enrichment of probe 1-labelled proteins from heavy cells in comparison to light control cells treated with the non-clickable hydrazine (3) at the same concentration as 1 (3 mM for 0.5 h); and 2) competition experiments where both heavy and light cells were treated probe 1, but light cells were also treated with 10× competitor 3 (FIG. 3A)—in two different human cell lines (HEK293T cells and the human breast cancer cell line MDA-MB-231).

[2] = target: T2, SCRN2 Secernin-2 (Q96FV2) (Homo sapiens, UniProt Q96FV2); assay: SILAC RP-ABPP; conditions: SILAC H/L, HEK293T
T2 construct: shared by both the endogenous and recombinant forms of these proteins; endogenous in cells; host or cells: HEK293T and MDA-MB-231
Protocol: as §1, §2, §3, §4, §5

[3] = target: T3, AMD1 S-adenosylmethionine decarboxylase (P17707) (Homo sapiens, UniProt P17707); assay: SILAC RP-ABPP; conditions: SILAC H/L, HEK293T
T3 construct: shared by both the endogenous and recombinant forms of these proteins; endogenous in cells; host or cells: HEK293T and MDA-MB-231
T3 sequence (P17707 68-334 limits assumed): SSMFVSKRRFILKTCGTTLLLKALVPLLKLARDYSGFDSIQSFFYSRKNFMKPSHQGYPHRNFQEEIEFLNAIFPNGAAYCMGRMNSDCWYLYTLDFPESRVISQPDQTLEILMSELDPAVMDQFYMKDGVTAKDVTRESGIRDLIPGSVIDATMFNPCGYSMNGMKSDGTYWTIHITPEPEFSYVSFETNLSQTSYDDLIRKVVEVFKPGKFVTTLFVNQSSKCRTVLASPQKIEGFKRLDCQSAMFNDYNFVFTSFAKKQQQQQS
T3 sequence (P17707 1-67 limits assumed): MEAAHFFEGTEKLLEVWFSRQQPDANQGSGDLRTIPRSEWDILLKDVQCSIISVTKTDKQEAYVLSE
Protocol: as §1, §2, §3, §4, §5

[4] = target: T4, LGMN Legumain (Q99538) (Homo sapiens, UniProt Q99538); assay: SILAC RP-ABPP; conditions: SILAC H/L
T4 construct: shared by both the endogenous and recombinant forms of these proteins; endogenous in cells; host or cells: HEK293T and MDA-MB-231
T4 sequence (Q99538 18-323): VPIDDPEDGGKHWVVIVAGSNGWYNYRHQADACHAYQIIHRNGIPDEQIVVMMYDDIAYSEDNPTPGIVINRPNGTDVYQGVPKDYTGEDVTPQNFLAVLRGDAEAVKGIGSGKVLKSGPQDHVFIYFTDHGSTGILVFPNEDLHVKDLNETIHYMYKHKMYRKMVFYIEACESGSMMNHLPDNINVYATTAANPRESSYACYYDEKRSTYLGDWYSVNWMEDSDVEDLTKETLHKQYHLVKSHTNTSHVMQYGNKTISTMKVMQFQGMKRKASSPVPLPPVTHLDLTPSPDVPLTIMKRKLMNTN
Protocol: as §1, §2, §3, §4, §5

[5] = target: T5, AMD1 (Homo sapiens, UniProt P17707); assay: gel-based RP-ABPP of transfected HEK293T cells; conditions: transfected HEK293T cells vs mock
T5 construct: Full-length genes encoding three probe 1- and one probe 2-targeted proteins were amplified from a cDNA library; expressed in transfected cells; host or cells: HEK293T
T5 sequence (P17707 68-334 limits assumed): T3 sequence (P17707 68-334 limits assumed)
T5 sequence (P17707 1-67 limits assumed): T3 sequence (P17707 1-67 limits assumed)

enrichment ratioavg ([1]; probe 2 1 mM 0.5 h vs probe 4) | competition ratioavg ([1]; probe 2 vs probe 2+10x probe 4) | enrichment ratioavg ([2]; probe 2 1 mM 0.5 h vs probe 4) | competition ratioavg ([2]; probe 2 vs probe 2+10x probe 4) | enrichment ratioavg ([3]; probe 2 1 mM 0.5 h vs probe 4) | competition ratioavg ([3]; probe 2 vs probe 2+10x probe 4) | enrichment ratioavg ([4]; probe 2 1 mM 0.5 h vs probe 4, MDA-MB-231) | competition ratioavg ([4]; probe 2 vs probe 2+10x probe 4, MDA-MB-231) | SMILES | enrichment ratioavg ([1]; probe 1 3 mM 0.5 h vs probe 3) | competition ratioavg ([1]; probe 1 vs probe 1+10x probe 3) | enrichment ratioavg ([2]; probe 1 3 mM 0.5 h vs probe 3) | competition ratioavg ([2]; probe 1 vs probe 1+10x probe 3) | enrichment ratioavg ([3]; probe 1 3 mM 0.5 h vs probe 3) | competition ratioavg ([3]; probe 1 vs probe 1+10x probe 3) | enrichment ratioavg ([4]; probe 1 3 mM 0.5 h vs probe 3, HEK293T) | competition ratioavg ([4]; probe 1 vs probe 1+10x probe 3, HEK293T) | probe labeling of recombinant protein, in-gel fluorescence [5]
 |  |  |  |  |  |  |  | C#CCNN.Cl [probe 1, prop-2-yn-1-ylhydrazine hydrochloride] | 20 | 6 | 20 | 9 | 20 | 5 | 20 | 18 | reacted with both probes 1 and 2
15 | 16 | 20 | 13 | 20 | 6 | 20 | 4 | C#CCCNC(=O)c1ccc(NN)cc1.Cl [probe 2, N-(but-3-yn-1-yl)-4-hydrazinylbenzamide hydrochloride] |  |  |  |  |  |  |  |  | reacted with both probes 1 and 2
